The test system of experiment [1] is KCNQ3*[Trp265TAG] rescued with F3-Trp. The experiment is described as follows: Two-electrode voltage clamp of F3-Trp-rescued KCNQ3*[Trp265TAG] channels (nonsense suppression). Format: cell-based, human. Particulars: for drug potency relative to Trp-rescued channels: F3-Trp substitution at Trp265. An excerpt:
(§1) KCNQ2 (human) and KCNQ3 (human) channel cDNAs were propagated and manipulated using the pTLN vector (gifts of Dr M. Taglialatela and Dr T. Jentsch). Introduction of point mutations was accomplished using PCR to combine two fragments each of which contained the mutation in an overlapping region of the sequence (‘two-step’ PCR method). To accomplish this, we used standard PCR approaches to amplify a 5′ fragment and a 3′ fragment (using a ‘flanking primer’ paired with a mutagenic primer). These fragments were then mixed along with the ‘flanking primer’ pair for a second round of PCR to combine the overlapping fragments. The resulting fragment was then subcloned into the appropriate parent vector using EcoRI and NotI restriction enzymes, and the sequence was verified by Sanger sequencing approaches (Genewiz). Sequences for the flanking primers and the ‘forward’ mutagenic primers are provided in Supplementary Table 1 for all mutations that were generated (‘reverse’ mutagenic primers are simply the reverse complement). In all experiments involving homomeric expression of KCNQ3 channels (including in vivo nonsense suppression experiments), the Ala315Thr mutation was introduced to enable efficient trafficking of homomeric KCNQ3. […] The plasmid encoding CivSP was kindly provided by Dr Y. Okamura. Complementary RNA was transcribed from the cDNA using the mMessage mMachine Kit (Ambion). Stage V–VI Xenopus laevis oocytes were prepared as previously described and were injected with cRNA alone or cRNA plus synthetic tRNA (for nonsense suppression, described below). Oocyte preparation was carried out using a protocol approved by the University of British Columbia Animal Care Committee, in accordance with the Canadian Council for Animal Care guidelines. We used female Xenopus laevis frogs 100 g or greater in size. After injection, oocytes were incubated for 12–48 h at 18 °C before recording.
Fluorinated Trp derivatives (5-F1-Trp; 7-F1-Trp; 5,7-F2-Trp (F2-Trp) and 5,6,7-F3-Trp (F3-Trp) were purchased from Asis Chem (Watertown, MA) and Sigma-Aldrich (St Louis, MO). The ‘Ind’ Trp variant was synthesized in-house as described previously. Incorporation of unnatural amino acids into ion channel proteins was carried out as described extensively in prior publications. Briefly, unnatural amino acids (aa) were protected with nitroveratryloxycarbonyl and were activated as the cyanomethyl ester, which were then coupled to the dinucleotide pdCpA (GE Healthcare/Dharmacon, Lafayette, CO). This aminoacyl dinucleotide was subsequently ligated to a modified (G73) Tetrahymena thermophile tRNA. […]
(§2) Voltage-clamped potassium currents were recorded in standard Ringers solution (in mM): 116 NaCl, 2 KCl, 1 MgCl2, 0.5 CaCl2, 5 HEPES (pH 7.4) using an OC-725C voltage clamp (Warner, Hamden, CT). […]
In general terms: Two-electrode voltage clamp is typically applied to oocytes expressing channels or transporters.

In a further experiment the target is T1, KCNQ2/3 heteromers (Homo sapiens, UniProt O43525+O43526).
T1 construct: expressed in transfected cells; host or cells: Xenopus laevis oocytes co-injected with KCNQ2 and KCNQ3 mRNA (1:1)
In words: Two-electrode voltage clamp of heteromeric KCNQ2/3 channels in Xenopus oocytes. Particulars: 1:1 injected mRNA. The format is cell-based.
Text: (§3) KCNQ2 (human) and KCNQ3 (human) channel cDNAs were propagated and manipulated using the pTLN vector (gifts of Dr M. Taglialatela and Dr T. Jentsch). Introduction of point mutations was accomplished using PCR to combine two fragments each of which contained the mutation in an overlapping region of the sequence (‘two-step’ PCR method). To accomplish this, we used standard PCR approaches to amplify a 5′ fragment and a 3′ fragment (using a ‘flanking primer’ paired with a mutagenic primer). These fragments were then mixed along with the ‘flanking primer’ pair for a second round of PCR to combine the overlapping fragments. The resulting fragment was then subcloned into the appropriate parent vector using EcoRI and NotI restriction enzymes, and the sequence was verified by Sanger sequencing approaches (Genewiz). Sequences for the flanking primers and the ‘forward’ mutagenic primers are provided in Supplementary Table 1 for all mutations that were generated (‘reverse’ mutagenic primers are simply the reverse complement). […]
as §2

The next experiment has as its target KCNQ2 (Homo sapiens, UniProt O43526). The experiment is described as follows: Two-electrode voltage clamp of homomeric KCNQ2 channels in Xenopus oocytes. Particulars: 100 μM retigabine (Fig. 1). The format is cell-based.
Text: as §3, §2

The target of experiment [2] is T2, KCNQ3*[Trp265TAG] rescued with Trp (Homo sapiens, UniProt O43525, A315T).
T2 construct: expressed in transfected cells; host or cells: Xenopus laevis oocytes co-injected with KCNQ3*[Trp265TAG] cRNA and Trp-acylated suppressor tRNA
T2 sequence (O43525 1-872 A315T): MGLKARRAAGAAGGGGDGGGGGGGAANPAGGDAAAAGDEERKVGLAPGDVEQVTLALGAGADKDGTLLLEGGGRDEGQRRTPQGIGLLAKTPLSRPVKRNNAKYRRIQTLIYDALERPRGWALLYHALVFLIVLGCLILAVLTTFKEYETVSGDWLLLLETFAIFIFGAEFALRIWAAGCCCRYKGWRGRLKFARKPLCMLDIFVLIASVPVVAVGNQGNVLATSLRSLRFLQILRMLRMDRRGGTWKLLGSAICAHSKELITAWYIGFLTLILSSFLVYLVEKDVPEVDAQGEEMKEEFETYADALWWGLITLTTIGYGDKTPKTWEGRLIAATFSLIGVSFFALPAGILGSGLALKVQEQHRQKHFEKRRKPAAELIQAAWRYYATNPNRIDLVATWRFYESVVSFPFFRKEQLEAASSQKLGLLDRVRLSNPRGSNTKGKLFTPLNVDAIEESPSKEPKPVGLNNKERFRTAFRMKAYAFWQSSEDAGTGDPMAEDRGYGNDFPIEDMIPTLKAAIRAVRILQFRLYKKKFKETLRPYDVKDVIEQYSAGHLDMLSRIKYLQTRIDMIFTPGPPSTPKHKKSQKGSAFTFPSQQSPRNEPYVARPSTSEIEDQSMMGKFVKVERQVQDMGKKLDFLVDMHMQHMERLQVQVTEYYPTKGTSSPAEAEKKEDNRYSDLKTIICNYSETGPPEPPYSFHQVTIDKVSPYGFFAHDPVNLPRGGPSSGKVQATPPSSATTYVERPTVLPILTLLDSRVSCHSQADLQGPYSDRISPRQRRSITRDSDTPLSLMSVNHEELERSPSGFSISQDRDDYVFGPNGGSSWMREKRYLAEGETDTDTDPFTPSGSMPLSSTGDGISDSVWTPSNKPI
The experiment is described as follows: Two-electrode voltage clamp of Trp-rescued KCNQ3*[Trp265TAG] channels (nonsense suppression). The format is cell-based. Particulars: 1 μM retigabine.
Text: as §3, §2

The next experiment deals with KCNQ3*[Trp265Ind]. In words: Two-electrode voltage clamp of Ind-rescued KCNQ3*[Trp265TAG] channels (nonsense suppression). The note with it: Ind at position 265; up to 100 μM retigabine. Format: cell-based, human.
Text: as §3, §2

Experiment [3] relates to KCNQ3* mutants at Thr271, Leu272, Leu314 and Leu338. In words: Two-electrode voltage clamp of KCNQ3* mutants at Thr271, Leu272, Leu314, Leu338. Format: cell-based, human. The note with it: functional mutants, up to 300 μM retigabine.
Text: as §3, §2

Another experiment has as its target T3, KCNQ3*[Asn220Cys] (Homo sapiens, UniProt O43525, A315T/N220C).
T3 sequence (O43525 1-872 N220C/A315T): T2 sequence (O43525 1-872 A315T) with N220C
In words: Two-electrode voltage clamp of KCNQ3*[Asn220Cys] channels in Xenopus oocytes. The format is cell-based. The note with it: 1 μM retigabine, Asn220Cys mutant.
Text: as §3, §2

For experiment [4], the target named is T4, KCNQ3* (KCNQ3[Ala315Thr]) (Homo sapiens, UniProt O43525, A315T).
T4 sequence (O43525 1-872 A315T): T2 sequence (O43525 1-872 A315T)
The experiment is described as follows: Two-electrode voltage clamp of homomeric KCNQ3* channels in Xenopus oocytes. Format: cell-based.
Text: as §1
Voltage-clamped potassium currents were recorded in standard Ringers solution (in mM): 116 NaCl, 2 KCl, 1 MgCl2, 0.5 CaCl2, 5 HEPES (pH 7.4) using an OC-725C voltage clamp (Warner, Hamden, CT). Glass microelectrodes were backfilled with 3 M KCl and had resistances of 0.1–1 MΩ. Data were filtered at 5 kHz and digitized at 10 kHz using a Digidata 1440A (Molecular Devices) controlled by the pClamp 10 software (Molecular Devices). Drugs were purchased from Toronto Research Chemicals (retigabine) or Tocris (ML-213, flupirtine, ICA-069673, ICA-110381), stored as 100 mM stocks in dimethylsulphoxide and diluted to working concentrations each experimental day.

The test system of another experiment is KCNQ1. The note with it: KCNQ1 lacks the S5 Trp; cited from earlier work.

Numbering of substitutions follows the chain as printed. Read-outs that look alike come from different tables or passages of the source.

Chain of KCNQ2 (O43526 whole entry): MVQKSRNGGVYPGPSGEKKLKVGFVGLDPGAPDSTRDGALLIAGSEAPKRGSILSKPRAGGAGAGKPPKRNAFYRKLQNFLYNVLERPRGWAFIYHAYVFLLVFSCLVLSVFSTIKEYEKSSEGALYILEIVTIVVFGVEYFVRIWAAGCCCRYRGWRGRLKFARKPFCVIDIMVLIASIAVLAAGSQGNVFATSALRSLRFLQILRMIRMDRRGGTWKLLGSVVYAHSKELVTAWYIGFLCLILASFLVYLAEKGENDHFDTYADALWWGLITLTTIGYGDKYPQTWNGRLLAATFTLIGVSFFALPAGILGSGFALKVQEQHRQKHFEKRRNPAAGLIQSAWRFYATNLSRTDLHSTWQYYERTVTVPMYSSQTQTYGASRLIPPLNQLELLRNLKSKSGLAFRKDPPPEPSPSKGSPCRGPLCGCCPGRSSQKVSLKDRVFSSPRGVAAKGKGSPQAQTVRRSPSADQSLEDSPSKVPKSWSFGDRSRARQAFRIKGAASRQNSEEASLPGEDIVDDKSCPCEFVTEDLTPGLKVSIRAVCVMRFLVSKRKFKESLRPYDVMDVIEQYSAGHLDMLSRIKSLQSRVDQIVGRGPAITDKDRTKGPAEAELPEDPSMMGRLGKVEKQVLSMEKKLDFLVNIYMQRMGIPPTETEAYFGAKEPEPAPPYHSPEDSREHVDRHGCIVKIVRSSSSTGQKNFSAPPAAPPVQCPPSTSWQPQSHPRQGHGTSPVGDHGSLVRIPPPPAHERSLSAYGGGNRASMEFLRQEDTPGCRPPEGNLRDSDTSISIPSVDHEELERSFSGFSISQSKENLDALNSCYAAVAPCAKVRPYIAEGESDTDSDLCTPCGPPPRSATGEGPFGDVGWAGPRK
T1 sequence (O43526 whole entry): as above
T1 sequence (O43525 whole entry): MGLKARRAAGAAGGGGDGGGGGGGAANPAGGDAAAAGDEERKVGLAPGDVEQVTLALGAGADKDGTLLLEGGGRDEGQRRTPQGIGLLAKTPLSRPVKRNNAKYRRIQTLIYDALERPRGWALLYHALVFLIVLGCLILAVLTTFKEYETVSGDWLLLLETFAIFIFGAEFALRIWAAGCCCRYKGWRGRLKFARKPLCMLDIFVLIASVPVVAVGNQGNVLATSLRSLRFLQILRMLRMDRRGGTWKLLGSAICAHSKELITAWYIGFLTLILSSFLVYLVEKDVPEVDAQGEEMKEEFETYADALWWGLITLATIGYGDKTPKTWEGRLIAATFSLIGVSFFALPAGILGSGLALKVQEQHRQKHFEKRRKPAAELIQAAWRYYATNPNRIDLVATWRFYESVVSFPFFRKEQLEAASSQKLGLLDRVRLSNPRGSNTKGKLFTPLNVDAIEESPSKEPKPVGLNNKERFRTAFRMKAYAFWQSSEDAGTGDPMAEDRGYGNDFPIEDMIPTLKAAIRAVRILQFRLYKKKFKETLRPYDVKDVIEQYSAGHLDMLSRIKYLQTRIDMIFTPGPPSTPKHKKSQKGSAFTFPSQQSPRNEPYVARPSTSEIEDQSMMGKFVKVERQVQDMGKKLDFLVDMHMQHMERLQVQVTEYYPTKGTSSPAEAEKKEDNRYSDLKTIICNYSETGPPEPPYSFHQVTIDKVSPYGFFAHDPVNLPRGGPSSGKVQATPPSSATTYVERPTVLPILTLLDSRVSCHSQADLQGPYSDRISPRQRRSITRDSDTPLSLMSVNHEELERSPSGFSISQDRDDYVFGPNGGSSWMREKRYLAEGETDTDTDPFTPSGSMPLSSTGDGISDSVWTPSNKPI

Turning to `O=C(Nc1cnc(Cl)nc1)c1ccc(F)c(F)c1` [ICA-069673], the “drug potency relative to Trp-rescued channels” value in experiment [1] was “not as pronounced”.
In the case of `CCOC(=O)Nc1ccc(NCc2ccc(F)cc2)cc1N` [retigabine], the retigabine-mediated gating shift at KCNQ2/3 heteromers is on record as about −40 mV; in experiment [3], “retained a large retigabine-mediated gating shift”. Moreover, the “hyperpolarizing shift of the V1/2 of activation” value at KCNQ2 is on record as 40–60 mV; in experiment [4] (homomeric KCNQ3*, Xenopus oocytes, 100 μM retigabine (Fig. 1)) it was 40–60 mV. For the same compound, the “shift in the voltage dependence of activation” value is reported as “much larger response” in [1] (1 μM retigabine, F3-Trp at Trp265) and “very little shift” in [2]. The “activation of channels (gating shift, activation kinetics)” value in the experiment on KCNQ3*[Trp265Ind] is recorded as “entirely abolishes retigabine activation”. For the same compound, at KCNQ3*[Asn220Cys], the “gating shift / sensitization to retigabine” value is “unable to generate a marked gating shift”. This compound had an EC50 in experiment [4] of 11.6 ± 0.4 µM. In [4] (KCNQ3* channels, rarely greater than), the “increase in peak current” value is listed as at most 15%. Besides, the “stabilization of channel opening, ΔG=Δ(zFV1/2)” value in experiment [4] (saturating retigabine, calculated from shift of conductance–voltage relationship) is about 6 kcal/mol. In the experiment with KCNQ1, the “hyperpolarizing shift of V1/2 of activation” value is “absent”.
On to `O=C(Nc1ccc(Cl)nc1)c1ccc(Cl)cc1` [ICA-110381], for which the “drug potency relative to Trp-rescued channels” value in experiment [1] is listed as “not as pronounced”. Further, the “activation relative to Trp channels” value in experiment [1] (F3-Trp-substituted channels) is “considerably more activation”.
As for `Cc1cc(C)c(NC(=O)C2CC3CCC2C3)c(C)c1` (stereo not shown) [ML-213], the EC50 in experiment [4] (KCNQ3* channels, n=5, ± s.e., read-out: EC50 for shift of activation V1/2) was determined as 3.6 ± 0.2 µM.

(Values after article PMC4561856, “Atomic basis for therapeutic activation of neuronal potassium channels” (Nature Communications, 2015).)
